From US5639783A, “Ketone derivatives” (Mitsubishi Chemical Corporation, priority 1991, dated 1997)
Read-outs that look alike come from different tables or passages of the source.

Assays:
Type in all cases: biochemical
papain = target: T1, papain (Carica papaya, UniProt P00784); assay: Thiol protease inhibitory activity, papain (P-3125, Sigma)
T1 sequence (P00784 134-345): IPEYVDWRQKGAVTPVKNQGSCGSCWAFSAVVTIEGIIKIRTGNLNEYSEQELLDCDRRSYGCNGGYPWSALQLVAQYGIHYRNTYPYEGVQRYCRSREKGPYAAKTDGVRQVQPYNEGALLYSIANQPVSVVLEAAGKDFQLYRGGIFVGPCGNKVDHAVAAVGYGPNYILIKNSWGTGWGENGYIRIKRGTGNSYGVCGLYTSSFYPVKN
Procedure: (§1) Inhibitory activity against papain (P-3125, Sigma) and cathepsin B (C-6286, Sigma) was assayed according to the method described in a literature [Biochemical Journal, 201, 189 (1982)]. Cathepsin L was purified from rat kidney according to the method in a literature [Journal of Biochemistry, 100, 35 (1986)], and the inhibitory activity against it was assayed in the same manner as described in the above literature for cathepsin B. Furthermore, m-calpain was purified from rat brain according to a known method [Journal of Biological Chemistry, 254, p. 3210 (1984)] and the inhibitory activity against it was assayed by a method described in a literature [Journal of Biological Chemistry, 259, 12489 (1984)]. It is evident from Tables 3 and 4 that the compounds of the present invention have a potent inhibitory activity against thiol proteases such as papain, cathepsin B, cathepsin L or m-calpain.

cathepsin B = target: T2, cathepsin B (Bos taurus, UniProt P07688); assay: Thiol protease inhibitory activity, cathepsin B (C-6286, Sigma); conditions: Table 3
T2 construct: purchased Sigma C-6286
Procedure: as §1

cathepsin L = target: T3, cathepsin L (Rattus norvegicus, UniProt P07154); assay: Thiol protease inhibitory activity, cathepsin L purified from rat kidney; conditions: Table 3
T3 construct: Cathepsin L was purified from rat kidney; from tissue; host or cells: rat kidney
T3 sequence (P07154 114-334): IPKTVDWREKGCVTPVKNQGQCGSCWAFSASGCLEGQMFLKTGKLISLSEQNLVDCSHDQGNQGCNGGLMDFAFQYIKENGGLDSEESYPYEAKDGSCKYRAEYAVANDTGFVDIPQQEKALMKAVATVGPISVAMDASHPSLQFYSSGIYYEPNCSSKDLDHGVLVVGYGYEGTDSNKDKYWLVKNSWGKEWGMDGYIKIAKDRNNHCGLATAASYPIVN
Procedure: as §1

m-calpain = target: T4, m-calpain (Rattus norvegicus, UniProt Q07009); assay: Thiol protease inhibitory activity, m-calpain purified from rat brain; conditions: Table 3
T4 construct: m-calpain was purified from rat brain; from tissue; host or cells: rat brain
T4 sequence (Q07009 20-700 limits assumed): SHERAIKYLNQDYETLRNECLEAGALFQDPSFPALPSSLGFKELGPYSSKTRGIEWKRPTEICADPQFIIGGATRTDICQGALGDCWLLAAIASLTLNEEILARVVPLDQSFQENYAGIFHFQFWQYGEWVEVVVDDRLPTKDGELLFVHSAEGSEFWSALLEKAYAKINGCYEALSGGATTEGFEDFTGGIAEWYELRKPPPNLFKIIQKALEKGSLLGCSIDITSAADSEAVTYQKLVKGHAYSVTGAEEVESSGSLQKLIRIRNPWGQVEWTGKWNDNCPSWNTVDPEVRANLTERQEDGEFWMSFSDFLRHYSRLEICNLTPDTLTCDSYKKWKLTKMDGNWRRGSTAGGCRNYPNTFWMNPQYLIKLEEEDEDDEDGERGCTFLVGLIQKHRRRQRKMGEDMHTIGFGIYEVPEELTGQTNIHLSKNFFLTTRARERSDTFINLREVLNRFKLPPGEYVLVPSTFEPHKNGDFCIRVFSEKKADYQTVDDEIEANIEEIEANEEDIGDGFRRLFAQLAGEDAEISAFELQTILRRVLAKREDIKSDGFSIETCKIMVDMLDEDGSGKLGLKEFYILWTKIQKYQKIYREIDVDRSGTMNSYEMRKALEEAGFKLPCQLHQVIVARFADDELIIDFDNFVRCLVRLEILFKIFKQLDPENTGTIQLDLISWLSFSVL
T4 sequence (Q64537 1-270 partner): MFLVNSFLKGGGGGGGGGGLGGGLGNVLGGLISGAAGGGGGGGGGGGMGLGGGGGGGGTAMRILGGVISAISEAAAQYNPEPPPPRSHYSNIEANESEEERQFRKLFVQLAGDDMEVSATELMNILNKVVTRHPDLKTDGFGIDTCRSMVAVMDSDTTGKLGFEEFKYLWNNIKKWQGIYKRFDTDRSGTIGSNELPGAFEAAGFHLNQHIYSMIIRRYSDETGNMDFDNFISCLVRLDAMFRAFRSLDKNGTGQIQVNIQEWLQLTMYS
Procedure: as §1

SMILES	IC50 (papain; Table 3, read-out: IC50 papain) [µM]	IC50 (cathepsin B) [µM]	IC50 (cathepsin L) [µM]	IC50 (m-calpain) [µM]	IC50 (papain) [µM]
CCCC[C@H](NC(=O)[C@H](CC(C)C)NC(=O)COc1cccc(Cl)c1Cl)C(=O)CSCc1ccco1 [41 (No. 91), (s)-3-[(s)-2-(2,3-dichlorophenoxyacetylamino)-4-methylvalerylamino]-1-furfurylthio-2-heptanone]	21	5.7	1.1	14	
CCCC[C@H](NC(=O)[C@H](CC(C)C)NC(=O)Cc1ccc(F)cc1)C(=O)CSCc1ccco1 [31 (No. 69), (s)-3-[(s)-2-(4-fluorophenylacetylamino)-4-methylvalerylamino]-1-furfurylthio-2-heptanone]	1.4	0.55	0.63	22	
CCCC[C@H](NC(=O)[C@H](CC(C)C)NC(=O)Cc1csc2ccccc12)C(=O)CSCc1ccco1 [34 (No. 79), (s)-3-[(s)-2-(3-benzothienylacetylamino)-4-methylvalerylamino]-1-furfurylthio-2-heptanone]	0.36	0.41	0.51	5.5	
CC(C)C[C@H](NC(=O)c1cc2ccccc2o1)C(=O)N[C@@H](Cc1ccccc1)C(=O)CSCc1ccco1 [174 (No. 382), (s)-3-[(s)-2-(2-benzofuranylcarbonylamino)-4-methylvalerylamino]-1-furfurylthio-4-phenyl-2-butanone]	12	23	1.6	16	
CC(C)C[C@H](NC(=O)COc1ccccc1)C(=O)N[C@@H](Cc1ccccc1)C(=O)CSCc1ccco1 [164 (No. 348), (s)-1-furfurylthio-3-((s)-4-methyl-2-phenoxyacetylaminovalerylamino)-4-phenyl-2-butanone]		64	3.2	1.7	35
CSCC(=O)[C@H](CCc1ccccc1)NC(=O)[C@H](CC(C)C)NC(=O)OCc1ccccc1 [202 (No. 534), (s)-3-((s)-2-benzyloxycarbonylamino-4-methylvalerylamino)-1-methylthio-5-phenyl-2-pentanone]	> 100	0.25	0.39	13	
CCCC[C@H](NC(=O)[C@H](CC(C)C)NC(=O)COc1ccc(Cl)cc1)C(=O)CSCc1ccco1 [40 (No. 90), (s)-3-[(s)-2-(4-chlorophenoxyacetylamino)-4-methylvalerylamino]-1-furfurylthio-2-heptanone]	2.1	0.27	0.85	8.4	
CCCC[C@H](NC(=O)[C@H](CC(C)C)NC(=O)COc1c(Cl)cc(Cl)cc1Cl)C(=O)CSCc1ccco1 [43 (No. 94), (s)-1-furfurylthio-3-[(s)-4-methyl-2-(2,4,6-trichlorophenoxyacetylamino)valerylamino]-2-heptanone]	0.37	0.057	0.038	5.8	
CCCC[C@H](NC(=O)[C@H](CC(C)C)NC(=O)COc1ccc(Cl)cc1Cl)C(=O)CSCc1ccco1 [42 (No. 92), (s)-3-[(s)-2-(2,4-dichlorophenoxyacetylamino)-4-methylvalerylamino]-1-furfurylthio-2-heptanone]	4.5	1.9	0.74	23	
CCCC[C@H](NC(=O)[C@H](CC(C)C)NC(=O)OCc1ccccc1)C(=O)CSCc1ccco1 [22 (No. 48), (s)-3-((s)-2-benzyloxycarbonylamino-4-methylvalerylamino)-1-furfurylthio-2-heptanone]	1.1	0.98	1.3	11	
CCCC[C@H](NC(=O)[C@H](CC(C)C)NC(=O)COc1ccccc1)C(=O)C[S+]([O-])Cc1ccco1 (stereo partly drawn) [4 (No. 83), (s)-1-furfurylsulfinyl-3-((s)-4-methyl-2-phenoxyacetylaminovalerylamino)-2-heptanone]		0.044	0.045	12	0.21
CCCC[C@H](NC(=O)[C@H](CC(C)C)NC(=O)COc1ccc(F)cc1)C(=O)CSCc1ccco1 [38 (No. 87), (s)-3-[(s)-2-(4-fluorophenoxyacetylamino)-4-methylvalerylamino]-1-furfurylthio-2-heptanone]	0.42	0.62	0.72	5	
CC(C)C[C@H](NC(=O)OCc1ccccn1)C(=O)N[C@@H](Cc1ccccc1)C(=O)CSCc1ccco1 [150 (No. 313), (s)-1-furfurylthio-3-[(s)-4-methyl-2-(2-pyridylmethoxycarbonylamino)valerylamino]-4-phenyl-2-butanone]	91	1.1	0.27	5.4	
CC(C)C[C@H](NC(=O)COc1cccc2ccccc12)C(=O)N[C@@H](Cc1ccccc1)C(=O)CSCc1ccco1 [170 (No. 364), (s)-1-furfurylthio-3-[(s)-4-methyl-2-(1-naphtoxyacetylamino)valerylamino]-4-phenyl-2-butanone]	9.2	6.5	8.6	19	
CCCC[C@H](NC(=O)[C@H](CC(C)C)NC(=O)CSc1ccccc1)C(=O)CSCc1ccco1 [49 (No. 107), (s)-1-furfurylthio-3-((s)-4-methyl-2-phenylthioacetylaminovalerylamino)-2-heptanone]		0.59	0.67	11	0.04
CC(C)C[C@H](NC(=O)COc1ccccc1)C(=O)N[C@@H](CC1CCCCC1)C(=O)CSCc1ccco1 [110 (No. 240), (s)-4-cyclohexyl-1-furfurylthio-3-((s)-4-methyl-2-phenoxyacetylaminovalerylamino)-2-butanone]		3.3	0.98	6	21
CC(C)C[C@H](NC(=O)C(C)Oc1ccccc1)C(=O)N[C@@H](Cc1ccccc1)C(=O)CSCc1ccco1 (stereo partly drawn) [165 (No. 349), (s)-1-furfurylthio-3-[(s)-4-methyl-2-(2-phenoxypropionylamino)valerylamino]-4-phenyl-2-butanone]	9.2	7	1.9	13	
CC(C)C[C@H](NC(=O)OCc1ccccc1)C(=O)N[C@@H](CCC(=O)O)C(=O)CSCc1ccco1 [217 (No. 600), (s)-4-((s)-2-benzyloxycarbonylamino-4-methylvalerylamino)-6-furfurylthio-5-oxohexanoic Acid]	26	2.5	11	19	
CCCC[C@H](NC(=O)[C@H](CC(C)C)NC(=O)COC1CCCCC1)C(=O)CSCc1ccco1 [35 (No. 81), (s)-3-((s)-2-cyclohexyloxyacetylamino-4-methylvalerylamino)-1-furfurylthio-2-heptanone]	0.21	0.7	1.1	8.6	
CCCC[C@H](NC(=O)[C@H](CC(C)C)NC(=O)Cc1cccc2ccccc12)C(=O)CSCc1ccco1 [33 (No. 76), (s)-1-furfurylthio-3-[(s)-4-methyl-2-(1-naphtylacetylamino)valerylamino]-2-heptanone]	0.7	1.2	0.27	6.4	
CC(C)C[C@H](NC(=O)Cc1cccc2ccccc12)C(=O)N[C@@H](Cc1ccccc1)C(=O)CSCc1ccco1 [159 (No. 333), (s)-1-furfurylthio-3-[(s)-4-methyl-2-(l-naphtylacetylamino)valerylamino]-4-phenyl-2-butanone]	0.38	0.75	1.1	1.9	
